One test concerns the target JAK2 (Homo sapiens (Human), UniProt O60674). The test can be described thus: Jak Biochemical HTRF Assay (JAK2). (TR-FRET usually uses a lanthanide donor and a delayed reading to cut background.)
The target of the next test is JAK1 (Homo sapiens (Human), UniProt P23458). Put plainly: Jak Biochemical HTRF Assay (JAK1). Particulars: recombinant GST-tagged catalytic domain, [ATP] 31.8 μM, unit not given (compound concentrations tested given in nM). From the text: Jak Biochemical HTRF Assay Protocol
Chain of JAK1 (P23458 875-1153): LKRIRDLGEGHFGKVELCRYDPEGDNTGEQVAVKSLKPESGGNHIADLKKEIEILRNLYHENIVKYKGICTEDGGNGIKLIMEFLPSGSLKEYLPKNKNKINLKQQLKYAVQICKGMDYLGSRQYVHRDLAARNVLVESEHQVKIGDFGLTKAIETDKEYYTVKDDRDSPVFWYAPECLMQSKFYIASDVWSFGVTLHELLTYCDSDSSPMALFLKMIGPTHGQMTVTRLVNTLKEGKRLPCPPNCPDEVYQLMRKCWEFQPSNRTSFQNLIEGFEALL
Subsequent reagent additions employed an Agilent Bravo.

[1] abbreviates: JAK2 IC50, recombinant GST-tagged catalytic domain, [ATP] 8.5 μM, unit not given (compound concentrations tested given in nM).
Where [2] appears, read: read-out: JAK2 IC50, recombinant GST-tagged catalytic domain, [ATP] 8.5 μM, unit not given (compound concentrations tested given in nM).

Read-outs that look alike come from different tables or passages of the source.

Chain of JAK2 (O60674 849-1124): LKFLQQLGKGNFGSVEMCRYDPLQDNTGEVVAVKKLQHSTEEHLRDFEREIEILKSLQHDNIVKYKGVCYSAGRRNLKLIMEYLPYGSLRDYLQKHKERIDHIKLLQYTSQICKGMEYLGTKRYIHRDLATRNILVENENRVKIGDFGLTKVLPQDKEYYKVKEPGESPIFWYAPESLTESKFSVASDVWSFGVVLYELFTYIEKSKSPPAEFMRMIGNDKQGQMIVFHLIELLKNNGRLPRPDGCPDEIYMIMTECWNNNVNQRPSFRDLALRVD

Turning to `CC(C)(C)S(=O)(=O)c1ccc(Nc2nn([C@H]3COCCC[C@@H]3C#N)c3cc[nH]c(=O)c23)cc1` (single isomer, unassigned) [Example 1-22, (3R,4S or 3S,4R)-3-(3-{[4-(tert-butylsulfonyl)phenyl]amino}-4-oxo-4,5-dihydro-1H-pyrazolo[4,3-c]pyridin-1-yl)oxepane-4-carbonitrile], the values for the IC50 on JAK2 (setting [1]) and at JAK1 were 21.2 nM and 17.3 nM, respectively.

For the compound `CC(C)(C)S(=O)(=O)c1ccc(Nc2nn([C@H]3COCC[C@@H]3C#N)c3cc[nH]c(=O)c23)cc1` [Example 1-13], the IC50 came to 0.21 nM at JAK2 (setting [2]) and 0.08 nM on JAK1.

Take `C[C@@H]1CN(S(=O)(=O)c2ccc(Nc3nn([C@H]4COCC[C@@H]4C#N)c4cc[nH]c(=O)c34)cc2)C[C@H](C)O1` [Example 1-73, (3R,4S)-3-{3-[(4-{[(cis)-2,6-dimethylmorpholin-4-yl]sulfonyl}phenyl)amino]-4-oxo-4,5-dihydro-1H-pyrazolo[4,3-c]pyridin-1-yl}tetrahydro-2H-pyran-4-carbonitrile]: the values for the IC50 on JAK2 (setting [2]) and at JAK1 were 0.7 nM and 0.35 nM, respectively.

As to `CC(O)(c1ccc(Nc2nn([C@H]3COCC[C@@H]3C#N)c3cc[nH]c(=O)c23)cc1)C(F)(F)F` (single isomer, unassigned) [Example 2-3, (3R,4S)-3-[4-oxo-3-({4-[(1R or 1S)-2,2,2-trifluoro-1-hydroxy-1-methylethyl]phenyl}amino)-4,5-dihydro-1H-pyrazolo[4,3-c]pyridin-1-yl]tetrahydro-2H-pyran-4-carbonitrile], the IC50 on JAK2 (setting [1]) is 0.39 nM; on JAK1, 0.06 nM.

Take `CC(C)NC(c1ccc(Nc2nn([C@H]3COCC[C@@H]3C#N)c3cc[nH]c(=O)c23)cc1)C(F)(F)F` (single isomer, unassigned) [Example 1-53, (3R,4S)-3-{4-oxo-3-[(4-{[1S or 1R)-2,2,2-trifluoro-[(1-methylethyl)amino]ethyl}phenyl)amino]-4,5-dihydro-1H-pyrazolo[4,3-c]pyridin-1-yl}tetrahydro-2H-pyran-4-carbonitrile]: the IC50 on JAK2 (setting [1]) was determined as 0.09 nM; on JAK1 it was 0.08 nM.

Take `N#C[C@H]1CCOC[C@@H]1n1nc(Nc2ccc(C(N3CCSCC3)C(F)(F)F)cc2)c2c(=O)[nH]ccc21` (single isomer, unassigned) [Example 2-5, (3R,4S)-3-[4-oxo-3-({4-[(1S or 1R)-2,2,2-trifluoro-1-thiomorpholin-4-ylethyl]phenyl}amino)-4,5-dihydro-1H-pyrazolo[4,3-c]pyridin-1-yl]tetrahydro-2H-pyran-4-carbonitrile]: the IC50 came out at 0.15 nM on JAK2 (setting [1]) and 0.14 nM at JAK1.

On to `Cc1ccc(Nc2nn([C@H]3COCC[C@@H]3C#N)c3cc[nH]c(=O)c23)cc1C` [Example 1-68, (3R,4S)-3-{3-[(3,4-dimethylphenyl)amino]-4-oxo-4,5-dihydro-1H-pyrazolo[4,3-c]pyridin-1-yl}tetrahydro-2H-pyran-4-carbonitrile], for which the IC50 was 1.83 nM at JAK2 (setting [2]) and 0.28 nM at JAK1.

With `CC(O)(c1ccc(Nc2nn([C@H]3COCC[C@@H]3C#N)c3cc[nH]c(=O)c23)cc1)C(F)(F)F` (single isomer, unassigned) [Example 2-4, (3R,4S)-3-[4-oxo-3-({4-[(1R or 1S)-2,2,2-trifluoro-1-hydroxy-1-methylethyl]phenyl}amino)-4,5-dihydro-1H-pyrazolo[4,3-c]pyridin-1-yl]tetrahydro-2H-pyran-4-carbonitrile], the IC50 turned out to be 0.27 nM at JAK2 (setting [1]) and 0.05 nM on JAK1.

Consider `CC(C)(C)S(=O)(=O)c1ccc(Nc2nn([C@@H]3COCCC[C@H]3C#N)c3cc[nH]c(=O)c23)cc1` (single isomer, unassigned) [Example 1-23, (3S,4R or 3R,4S)-3-(3-{[4-(tert-butylsulfonyl)phenyl]amino}-4-oxo-4,5-dihydro-1H-pyrazolo[4,3-c]pyridin-1-yl)oxepane-4-carbonitrile], for which the IC50 was 0.69 nM on JAK2 (setting [1]) and 0.25 nM at JAK1.

`N#C[C@H]1CCOC[C@@H]1n1nc(Nc2ccc(C(N3CCSCC3)C(F)(F)F)cc2)c2c(=O)[nH]ccc21` (single isomer, unassigned) [Example 2-6, (3R,4S)-3-[4-oxo-3-({4-[(1R or 1S)-2,2,2-trifluoro-1-thiomorpholin-4-ylethyl]phenyl}amino)-4,5-dihydro-1H-pyrazolo[4,3-c]pyridin-1-yl]tetrahydro-2H-pyran-4-carbonitrile]: the IC50 on JAK2 (setting [1]) stood at 0.24 nM; at JAK1, 0.21 nM.

Consider `CC(C)(C)OC(=O)CNC(c1ccc(Nc2nn([C@H]3COCC[C@@H]3C#N)c3cc[nH]c(=O)c23)cc1)C(F)(F)F` (single isomer, unassigned) [Example 1-41, tert-butyl N-{(1S or 1R)-1-[4-({1-[(3R,4S)-4-cyanotetrahydro-2H-pyran-3-yl]-4-oxo-4,5-dihydro-1H-pyrazolo[4,3-c]pyridin-3-yl}amino)phenyl]-2,2,2-trifluoroethyl}glycinate], for which the IC50 at JAK2 (setting [1]) was 0.6 nM; on JAK1 it was 0.14 nM.

Regarding `N#C[C@H]1CCOC[C@@H]1n1nc(Nc2ccc(C(NC3CC3)C(F)(F)F)cc2)c2c(=O)[nH]ccc21` (single isomer, unassigned) [Example 1-81, (3R,4S)-3-[3-({4-[(1R or 1S)-1-(cyclopropylamino)-2,2,2-trifluoroethyl]phenyl}amino)-4-oxo-4,5-dihydro-1H-pyrazolo[4,3-c]pyridin-1-yl]tetrahydro-2H-pyran-4-carbonitrile], the IC50 on JAK2 (setting [2]) stood at 0.15 nM; at JAK1, 0.08 nM.

As for `COc1cc(Nc2nn([C@H]3COCC[C@@H]3C#N)c3cc[nH]c(=O)c23)ccc1F` [Example 1-17, (3R,4S)-3-{3-[(4-fluoro-3-methoxyphenyl)amino]-4-oxo-4,5-dihydro-1H-pyrazolo[4,3-c]pyridin-1-yl}tetrahydro-2H-pyran-4-carbonitrile], the values for the IC50 at JAK2 (setting [2]) and on JAK1 were 2.52 nM and 0.09 nM, respectively.

Take `CC1CCN1S(=O)(=O)c1ccc(Nc2nn([C@H]3COCC[C@@H]3C#N)c3cc[nH]c(=O)c23)cc1` (single isomer, unassigned) [Example 1-78, (3R,4S)-3-{3-[(4-{[(2S or 2R)-2-methylazetidin-1-yl]sulfonyl}phenyl)amino]-4-oxo-4,5-dihydro-1H-pyrazolo[4,3-c]pyridin-1-yl}tetrahydro-2H-pyran-4-carbonitrile]: the IC50 turned out to be 0.24 nM at JAK2 (setting [1]) and 0.12 nM at JAK1.

As for `CN(C)C(c1ccc(Nc2nn([C@H]3COCC[C@@H]3C#N)c3cc[nH]c(=O)c23)cc1)C(F)(F)F` (single isomer, unassigned) [Example 1-58, (3R,4S)-3-[3-({4-[(1R or 1S)-1-(dimethylamino)-2,2,2-trifluoroethyl]phenyl}amino)-4-oxo-4,5-dihydro-1H-pyrazolo[4,3-c]pyridin-1-yl]tetrahydro-2H-pyran-4-carbonitrile], the IC50 at JAK2 (setting [1]) is 0.13 nM; on JAK1, 0.07 nM.

For the compound `Cc1cc(Nc2nn([C@H]3COCC[C@@H]3C#N)c3cc[nH]c(=O)c23)ccc1C(=O)N1CCC(F)(F)CC1` [Example 1-35, (3R,4S)-3-(3-((4-(4,4-difluoropiperidine-1-carbonyl)-3-methylphenyl)amino)-4-oxo-4,5-dihydro-1H-pyrazolo[4,3-c]pyridin-1-yl)tetrahydro-2H-pyran-4-carbonitrile], the IC50 on JAK2 (setting [2]) was 0.16 nM; on JAK1 it was 0.12 nM.

As to `CC1(C)CCCN1S(=O)(=O)c1ccc(Nc2nn([C@H]3COCC[C@@H]3C#N)c3cc[nH]c(=O)c23)cc1` [Example 1-72, (3R,4S)-3-[3-({4-[(2,2-dimethylpyrrolidin-1-yl)sulfonyl]phenyl}amino)-4-oxo-4,5-dihydro-1H-pyrazolo[4,3-c]pyridin-1-yl]tetrahydro-2H-pyran-4-carbonitrile], the IC50 turned out to be 0.2 nM at JAK2 (setting [2]) and 0.1 nM on JAK1.

As for `CC(C)NC1(C)C(=O)Nc2cc(Nc3nn(C4COCC[C@@H]4C#N)c4cc[nH]c(=O)c34)ccc21` (single isomer, unassigned) [Example 1-101, (3R,4S)-3-[3-({(3S or 3R)-3-methyl-3-[(1-methylethyl)amino]-2-oxo-2,3-dihydro-1H-indol-6-yl}amino)-4-oxo-4,5-dihydro-1H-pyrazolo[4,3-c]pyridin-1-yl] tetrahydro-2H-pyran-4-carbonitrile], the IC50 on JAK2 (setting [2]) was 0.05 nM; at JAK1, 0.07 nM.

In the case of `CC1CCCN1C(c1ccc(Nc2nn([C@H]3COCC[C@@H]3C#N)c3cc[nH]c(=O)c23)cc1)C(F)(F)F` (single isomer, unassigned) [Example 1-87, (3R,4S)-3-{4-oxo-3-[(4-{(1S or 1R)-2,2,2-trifluoro-1-[(2R or 2S)-2-methylpyrrolidin-1-yl]ethyl}phenyl)amino]-4,5-dihydro-1H-pyrazolo[4,3-c]pyridin-1-yl}tetrahydro-2H-pyran-4-carbonitrile], the IC50 came out at 0.3 nM on JAK2 (setting [1]) and 0.15 nM on JAK1.

As for `C[S+]([O-])c1cc(Nc2nn([C@H]3COCC[C@@H]3C#N)c3cc[nH]c(=O)c23)ccc1Cl` (mixture of isomers) [Example 3-4, (3R,4S)-3-(3-{[4-chloro-3-((S and R)methylsulfinyl)phenyl]amino}-4-oxo-4,5-dihydro-1H-pyrazolo[4,3-c]pyridin-1-yl)tetrahydro-2H-pyran-4-carbonitrile], the IC50 stood at 14.6 nM on JAK2 (setting [1]) and 1.75 nM at JAK1.

For `CN1Cc2cc(Nc3nn([C@H]4COCC[C@@H]4C#N)c4cc[nH]c(=O)c34)ccc2S1(=O)=O` [Example 1-4, (3R,4S)-3-(3-((2-methyl-1,1-dioxido-2,3-dihydrobenzo[d]isothiazol-5-yl)amino)-4-oxo-4,5-dihydro-1H-pyrazolo[4,3-c]pyridin-1-yl)tetrahydro-2H-pyran-4-carbonitrile], the IC50 was found to be 0.34 nM at JAK2 (setting [2]) and 0.04 nM at JAK1.
